The values that follow are results of earlier work, collected in patent publication US20080253985A1, “Compositions for Lowering Serum Cholesterol and/or Triglycerides” (priority 2005, published 2008).

Structures are written as SMILES. Like-named read-outs stand apart in the source and are kept apart here.

For data set [1] the following is noted: dose of 40 mg.
The conditions of data set [2]: hoFH patients; ezetimibe 10 mg/day added to atorvastatin or simvastatin 80 mg/day.
[3] abbreviates: clinical studies, dosages of 80 mg/day or greater.

On to `O=C(NC1CCN(CCCCC2(C(=O)NCC(F)(F)F)c3ccccc3-c3ccccc32)CC1)c1ccccc1-c1ccc(C(F)(F)F)cc1` [BMS-201038, N-(2,2,2-Trifluorethyl)-9-[4-[4-[[[4′-(trifluoromethyl)[1,1′biphenyl]-2-Yl]carbonyl]amino]-1-piperidinyl]butyl]9H-fluorene-9-carboxamide], for which, for the setting “patients treated with 25 mg/day”, the adverse events result was “gastrointestinal disturbances, abnormalities in liver function, and hepatic steatosis”.

Turning to `CC(C)c1c(C(=O)Nc2ccccc2)c(-c2ccccc2)c(-c2ccc(F)cc2)n1CCC(O)CC(O)CC(=O)O` (centres unmarked) [atorvastatin, 7-[2-(4-fluorophenyl)-5-(1-methylethyl)-3-phenyl-4-(phenylcarbamoyl)-1H-pyrrol-1-yl]-3,5-dihydroxy-heptanoic acid], the “patients achieving goal attainment, LDL <70 mg/dL” value in data set [1] was 23%.

In the case of `O=C1[C@H](CC[C@H](O)c2ccc(F)cc2)[C@@H](c2ccc(O)cc2)N1c1ccc(F)cc1` [ezetimibe], the “total reduction of LDL-C levels” value in data set [2] was 27%.

With `Cc1cc(C)c2c3ccccc3n(Cc3ccc([C@@H](C(=O)N[C@H](CO)c4ccccc4)C4CCCC4)cc3)c2n1` [implitapide, (2S)-2-cyclopentyl-2-[4-[(2,4-dimethyl-9H-pyrido[2,3-b]indol-9-yl)methyl]phenyl]-N-[(1S)-2-hydroxy-1-phenylethyl]ethanamide], under setting [3], the adverse events entry is “gastrointestinal disturbances, abnormalities in liver function, and hepatic steatosis”; the therapeutic efficacy result is given as “therapeutically effective”.
